Measured values reported in patent US4463009A, “Dialkyl 1-(2-pyridinylthio)-1,2-hydrazinedicarboxylate, N-oxides and their use as animal growth stimulants” (priority 1983, dated 1984).
Values after ≈ are worked out from the molar mass of the structure shown.

How the values were obtained:
broiler chicks = assay: Chick Growth Study; format: in vivo, chicken; settings: 8 reps (8/rep)
Method: One day old broiler chicks, selected for weight, health and sex, are housed in an environmentally controlled room with temperature at 80° F. and humidity at 40%. Chicks are fed ad libitum. Water is offered ad libitum. A rye or corn basal ration is fed during the acclimation period (days 1 and 2), then, mixed with the compound under test or control conditions on days 3-17. Either 8 pens (64 chicks) or 16 pens (128 chicks) are used for each test or control group.
B. Representative results using diethyl 1-(2-pyridinylthio)-1,2-hydrazinedicarboxylate, N-oxide: […]

Strep. faecalis = assay: chemotherapeutic activity, m.i.c. against Strep. faecalis; format: cell-based; settings: Enterococcus faecalis
C. albicans = assay: chemotherapeutic activity, m.i.c. against C. albicans; format: cell-based; settings: Candida albicans
Staph. aureus = assay: chemotherapeutic activity, m.i.c. against Staph. aureus; format: cell-based; settings: Staphylococcus aureus
E. coli = assay: chemotherapeutic activity, m.i.c. against E. coli; format: cell-based; settings: Escherichia coli
[1] = system: Ileal inoculum (filtrate) of Yorkshire barrow; assay: in vitro incubation with inoculum from cannulated swine (ileal); format: cell-based; settings: 5 hours at 37°
Method: A Yorkshire barrow is surgically prepared either with an ileal cannula, which is placed 15 cm. from the ileo-ceco-colic junction, or a cecal cannula, which placed midway between the apex and origin of the cecum. The animal is fed 4 times daily to restrict intake to 4.5% of body weight in a 30 kg animal or 2.5% of body weight in a 100 kg animal. The swine grower ration is:
Sampling of the material, via the cannula, begins 150-180 minutes following the first morning feeding and continues any time from 30-120 minutes thereafter, depending on the quantity of material needed. The sample is maintained in crushed ice, no cooler than 5°, and is gassed continuously with carbon dioxide. The collected material is filtered. The filtrate is the inoculum used for incubations of the test and control samples. […] Four blank control tubes, along with the test compound tubes, are incubated 5 hours at 37° with agitation. Four more killed tubes are included which are not incubated.
The tubes are each treated with 0.60 ml of a 25% solution of metaphosphoric acid, then, stored at -4° until analysis. Samples are thawed and centrifuged for 25 minutes at 20,000 r.p.m. The supernatent liquid is decanted, sampled for gas chromatography and automatic analysis. The results are fed into a computer for finishing to give figures in which the blank control value is 100%. Virginiamycin is used as a positive control.
*VFA refers to the total of volatile fatty acids, namely acetate,
propionate, isobutyrate, butyrate, isovalerate and valerate. LYS is
lysine, GLU is glucose and LAC is Llactic acid.

[2] = (3) positive control, 166.67 ppm

Compound: CCOC(=O)NN(Sc1cccc[n+]1[O-])C(=O)OCC [diethyl 1-(2-pyridinylthio)-1,2-hydrazinedicarboxylate, N-oxide]
- Weight, 17 day (broiler chicks; trial (1)): 102.0 % of Control
- Dead (broiler chicks; trial (1), 20 ppm in feed): 1
- Feed/Gain, days 3-10 (broiler chicks; trial (1), 20 ppm in feed): 102.2 % of Control
- Feed/Gain, days 3-17 (broiler chicks; trial (1), 20 ppm in feed): 101.7 % of Control
- Feed/Gain, days 10-17 (broiler chicks; trial (1), 20 ppm in feed): 101.7 % of Control
- Weight, 10 day (broiler chicks; trial (1), 20 ppm in feed): 96.4 % of Control
- Weight, 17 day (broiler chicks; trial (1), 20 ppm in feed): 103.2 % of Control
- Dead (broiler chicks; trial (1), 40 ppm in feed): 4
- Feed/Gain, days 3-10 (broiler chicks; trial (1), 40 ppm in feed): 103.3 % of Control
- Feed/Gain, days 3-17 (broiler chicks; trial (1), 40 ppm in feed): 98.4 % of Control
- Feed/Gain, days 10-17 (broiler chicks; trial (1), 40 ppm in feed): 95.0 % of Control
- Weight, 10 day (broiler chicks; trial (1), 40 ppm in feed): 90.9 % of Control
- Dead (broiler chicks; trial (2), 20 ppm in feed): 4
- Feed/Gain, days 3-10 (broiler chicks; trial (2), 20 ppm in feed): 96.8 % of Control
- Feed/Gain, days 3-17 (broiler chicks; trial (2), 20 ppm in feed): 96.4 % of Control
- Feed/Gain, days 10-17 (broiler chicks; trial (2), 20 ppm in feed): 96.5 % of Control
- Weight, 10 day (broiler chicks; trial (2), 20 ppm in feed): 103.5 % of Control
- Weight, 17 day (broiler chicks; trial (2), 20 ppm in feed): 103.4 % of Control
- Dead (broiler chicks; trial (3), 50 ppm in feed): 0
- Feed/Gain, days 3-10 (broiler chicks; trial (3), 50 ppm in feed): 97.1 % of Control
- Feed/Gain, days 3-17 (broiler chicks; trial (3), 50 ppm in feed): 93.6 % of Control
- Feed/Gain, days 10-17 (broiler chicks; trial (3), 50 ppm in feed): 85.2 % of Control
- Weight, 10 day (broiler chicks; trial (3), 50 ppm in feed): 93.2 % of Control
- Weight, 17 day (broiler chicks; trial (3), 50 ppm in feed): 102.8 % of Control
- MIC (Strep. faecalis): 3 µg/mL (≈ 9.96 µM)
- MIC (C. albicans): 63 µg/mL (≈ 209 µM)
- MIC (Staph. aureus): 2 µg/mL (≈ 6.64 µM)
- MIC (E. coli): 63 µg/mL (≈ 209 µM)
- GLU (glucose) ([1]; (1), 1.67 ppm): 166 % of control values
- LAC (L-lactic acid) ([1]; (1), 1.67 ppm): 91 % of control values
- LYS (lysine) ([1]; (1), 1.67 ppm): 109 % of control values
- VFA (total volatile fatty acids) ([1]; (1), 1.67 ppm): 91 % of control values
- GLU (glucose) ([1]; (1), 16.67 ppm): 237 % of control values
- LAC (L-lactic acid) ([1]; (1), 16.67 ppm): 81 % of control values
- LYS (lysine) ([1]; (1), 16.67 ppm): 152 % of control values
- VFA (total volatile fatty acids) ([1]; (1), 16.67 ppm): 72 % of control values
- GLU (glucose) ([1]; (1), 166.7 ppm): 379 % of control values
- LAC (L-lactic acid) ([1]; (1), 166.7 ppm): 54 % of control values
- LYS (lysine) ([1]; (1), 166.7 ppm): 194 % of control values
- VFA (total volatile fatty acids) ([1]; (1), 166.7 ppm): 47 % of control values
- GLU (glucose) ([1]; (2), 166.67 ppm): 845 % of control values
- LAC (L-lactic acid) ([1]; (2), 166.67 ppm): 139 % of control values
- LYS (lysine) ([1]; (2), 166.67 ppm): 110 % of control values
- VFA (total volatile fatty acids) ([1]; (2), 166.67 ppm): 55 % of control values

Compound: virginiamycin [reference compound]
- GLU (glucose) ([1]; (3) positive control, 1.67 ppm): 393 % of control values
- LAC (L-lactic acid) ([1]; (3) positive control, 1.67 ppm): 0 % of control values
- LYS (lysine) ([1]; (3) positive control, 1.67 ppm): 99 % of control values
- VFA (total volatile fatty acids) ([1]; (3) positive control, 1.67 ppm): 255 % of control values
- GLU (glucose) ([1]; (3) positive control, 16.7 ppm): 464 % of control values
- LAC (L-lactic acid) ([1]; (3) positive control, 16.7 ppm): 12 % of control values
- LYS (lysine) ([1]; (3) positive control, 16.7 ppm): 141 % of control values
- VFA (total volatile fatty acids) ([1]; (3) positive control, 16.7 ppm): 114 % of control values
- GLU (glucose) [1, 2]: 496 % of control values
- LAC (L-lactic acid) [1, 2]: 14 % of control values
- LYS (lysine) [1, 2]: 144 % of control values
- VFA (total volatile fatty acids) [1, 2]: 86 % of control values
